The values that follow come from patent EP0874850B1, “NOVEL TRICYCLIC COMPOUNDS FOR THE INHIBITION OF THE ICE/CED-3 PROTEASE FAMILY OF ENZYMES” (Idun Pharmaceuticals, Inc., priority 1996, dated 1998).

What all share (assay type): biochemical
For experiment [1], the target named is mICE. Briefly: Fluorescence enzyme assay, determination of IC50 values (ICE). Conditions: recombinant enzyme; 30 minutes preincubation at room temperature; substrate Acetyl-Tyr-Val-Ala-Asp-amino-4-methylcoumarin. On the procedure:
(§1) The substrate is Acetyl-Tyr-Val-Ala-Asp-amino-4-methylcoumarin (AMC) for the ICE assay and Acetyl-Asp-Glu-Val-Asp-amino-4-methylcoumarin for the CPP32, Mch2, Mch3 and Mch5 assays. Enzyme reactions were run in ICE buffer (25 mM HEPES, 1 mM EDTA, 0.1% CHAPS, 10% sucrose, pH 7.5) containing 2 mM DTT at room temperature in duplicate.
(§2) The enzyme and the compound of Formula 1 to be assayed were allowed to preincubate in the microtitre plate wells for 30 minutes at room temperature prior to the addition of substrate to initiate the reaction. Fluorescent AMC product formation was monitored for one hour at room temperature by measuring the fluorescence emission at 460 nm using an excitation wavelength of 360 nm. […]
(§3) The reference compound for this assay was Cbz-ValAlaAsp-H and the values are denoted in Table 1 as "Reference".

Experiment [2] has as its target CPP32. Description: Fluorescence enzyme assay, determination of IC50 values (CPP32). Conditions: recombinant enzyme; 30 minutes preincubation at room temperature; substrate Acetyl-Asp-Glu-Val-Asp-amino-4-methylcoumarin. On the procedure: as §1, §2, §3
Experiment [3] deals with MCH-2. Briefly: Fluorescence enzyme assay, determination of IC50 values (Mch2). Conditions: 30 minutes preincubation at room temperature; substrate Acetyl-Asp-Glu-Val-Asp-amino-4-methylcoumarin. How it is done: as §1, §2, §3
The target of another experiment is MCH-3. Description: Fluorescence enzyme assay, determination of IC50 values (Mch3). To be noted: 30 minutes preincubation at room temperature; substrate Acetyl-Asp-Glu-Val-Asp-amino-4-methylcoumarin. How it is done:
as §1, §2, §3

The target in experiment [4] is MCH-5. Briefly: Fluorescence enzyme assay, determination of IC50 values (Mch5). To be noted: 30 minutes preincubation at room temperature; substrate Acetyl-Asp-Glu-Val-Asp-amino-4-methylcoumarin. How it is done: as §1, §2, §3
The target in experiment [5] is mICE. Description: Determination of dissociation constant Ki and irreversible rate constant k3 for irreversible inhibitors (ICE). An excerpt: (§4) For the irreversible inhibition of a ICE/ced-3 Family Protease enzyme with a competitive irreversible inhibitor; using the model represented by the following formulas: [drawing 15] [drawing 16] The product formation at time t may be expressed as: [formula] where E, I, EI and E-I denote the active enzyme, inhibitor, non-covalent enzyme-inhibitor complex and covalent enzyme-inhibitor adduct, respectively. The Ki value is the overall dissociation constant of the reversible binding steps, and k3 is the irreversible rate constant. The [S] and Ks values are the substate concentration and dissociation constant of the substrate bound to the enzyme, respectively. [E]^T is the total enzyme concentration.
(§5) The above equations were used to determine the Ki and k3 values of a given inhibitor bound to a ICE/ced-3 family protease. Thus, a continuous assay was run for sixty minutes at various concentrations of the inhibitor and the substrate. The assay was formulated essentially the same as described above for generating the data in Table 1, except that the reaction was initiated by adding the enzyme to the substrate-inhibitor mixture. The Ki and k3 values were obtained by simulating the product AMC formation as a function of time according to Equation I. The results of this second assay are set forth below in Table 2. […]

Experiment [6] has as its target CPP32. Briefly: Determination of dissociation constant Ki and irreversible rate constant k3 for irreversible inhibitors (CPP32).
Excerpt: as §4, §5

In experiment [7] the target is MCH-2. Briefly: Determination of dissociation constant Ki and irreversible rate constant k3 for irreversible inhibitors (Mch2).
Excerpt: as §4, §5

In experiment [8] the target is MCH-5. Briefly: Determination of dissociation constant Ki and irreversible rate constant k3 for irreversible inhibitors (Mch5).
Excerpt: as §4, §5

[9] abbreviates: continuous assay for sixty minutes, reaction initiated by adding the enzyme.

Residues, ends and D or L forms follow the SMILES beside them. *: point of attachment. Cbz = O=C(OCc1ccccc1)*; CH2F = FC*

The IC50 is the concentration needed to halve the response being measured. Turning to `CC(C)[C@H](NC(=O)OCc1ccccc1)C(=O)N[C@@H](C)C(=O)N[C@H](C=O)CC(=O)O` [Ref., Cbz-ValAlaAsp-H] (Cbz-Val-Ala-Asp-aldehyde), the IC50 at mICE [1] is 64 nM; at CPP32 [2], 47000 nM; on MCH-2 [3], more than 10000 nM; against MCH-3, more than 10000 nM; against MCH-5 [4] it was 2960 nM.
Consider Cbz-Val-Ala-Asp-CH2F [Reference], for which the k3/Ki on mICE [5] (Reference) was 214,000 M^-1s^-1; at CPP32 [6] (Reference) it was 12,200 M^-1s^-1; at MCH-2 [7] (Reference), 2,950 M^-1s^-1; at MCH-5 [8] (Reference) it was 83,300 M^-1s^-1. Moreover, the Ki is 15 nM at mICE [5] (setting [9]), 820 nM on CPP32 [6] (setting [9]), 594 nM at MCH-2 [7] (setting [9]) and 18 nM at MCH-5 [8] (setting [9]).
